Experimental data taken from US8952024B2, “Herbicidal pyrimidone derivatives” (E I du Pont de Nemours and Company, priority 2009, dated 2015).

Experiments:
Assay in all cases: Test C plant response
Assay type in all cases: in vivo
Details in all cases: Postemergence, scale 0 to 100
[1] = test system: windgrass (Apera spica-venti)
Procedure, shortened: (§1)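 Test chemicals were applied in a non-phytotoxic solvent mixture containing a surfactant. After 14 days in a controlled growth environment, injury was rated visually against untreated controls on a 0–100 scale (0 no effect, 100 complete control).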

[2] = test system: winter wheat (Triticum aestivum)
Procedure, shortened: as §1

[3] = test system: spring barley (Hordeum vulgare)
Procedure, shortened: as §1

[4] = test system: deadnettle (henbit deadnettle, Lamium amplexicaule)
Procedure, shortened: as §1

[5] = test system: buckwheat (wild buckwheat, Polygonum convolvulus)
Procedure, shortened: as §1

[6] = test system: field poppy (Papaver rhoeas)
Procedure, shortened: as §1

[7] = test system: canarygrass (Phalaris minor)
Procedure, shortened: as §1

[8] = test system: oilseed rape (Brassica napus)
Procedure, shortened: as §1

[9] = test system: spring wheat (Triticum aestivum)
Procedure, shortened: as §1

[10] = test system: chickweed (common chickweed, Stellaria media)
Procedure, shortened: as §1

[11] = test system: bluegrass (annual bluegrass, Poa annua)
Procedure, shortened: as §1

[12] = test system: pigweed (Amaranthus retroflexus)
Procedure, shortened: as §1

[13] = test system: Italian ryegrass (Lolium multiflorum)
Procedure, shortened: as §1

kochia (Kochia scoparia) = test system: kochia (Kochia scoparia)
Procedure, shortened: as §1

[14] = test system: blackgrass (Alopecurus myosuroides)
Procedure, shortened: as §1

[15] = test system: wild mustard (Sinapis arvensis)
Procedure, shortened: as §1

[16] = test system: winter barley (Hordeum vulgare)
Procedure, shortened: as §1

[17] = test system: Russian thistle (Salsola iberica)
Procedure, shortened: as §1

wild oat (Avena fatua) = test system: wild oat (Avena fatua)
Procedure, shortened: as §1

[18] = test system: galium (catchweed bedstraw, Galium aparine)
Procedure, shortened: as §1

[19] = test system: lambsquarters (Chenopodium album)
Procedure, shortened: as §1

[20] = test system: wild radish (Raphanus raphanistrum)
Procedure, shortened: as §1

[21] = test system: bromegrass (downy bromegrass, Bromus tectorum)
Procedure, shortened: as §1

[22] = test system: green foxtail (Setaria viridis)
Procedure, shortened: as §1

## Cc1cc(C)cc(-n2c(-c3ccccc3)ncc(C(=O)C3=C(O)CCCC3=O)c2=O)c1 [Compound 33]
[1]; 31 g ai/ha
  Plant response rating: Windgrass: 20
[1]; 16 g ai/ha
  Plant response rating: Windgrass: 0
[1]; 62 g ai/ha
  Plant response rating: Windgrass: 25
[1]; 125 g ai/ha
  Plant response rating: Windgrass: 40
[2]; 31 g ai/ha
  Plant response rating: Wheat, Winter: 0
[2]; 16 g ai/ha
  Plant response rating: Wheat, Winter: 0
[2]; 62 g ai/ha
  Plant response rating: Wheat, Winter: 5
[2]; 125 g ai/ha
  Plant response rating: Wheat, Winter: 5
[3]; 31 g ai/ha
  Plant response rating: Barley, Spring: 0
[3]; 16 g ai/ha
  Plant response rating: Barley, Spring: 0
[3]; 62 g ai/ha
  Plant response rating: Barley, Spring: 0
[3]; 125 g ai/ha
  Plant response rating: Barley, Spring: 0
[4]; 31 g ai/ha
  Plant response rating: Deadnettle: 98
[4]; 16 g ai/ha
  Plant response rating: Deadnettle: 95
[4]; 62 g ai/ha
  Plant response rating: Deadnettle: 98
[4]; 125 g ai/ha
  Plant response rating: Deadnettle: 100
[5]; 31 g ai/ha
  Plant response rating: Buckwheat, Wild: 65
[5]; 16 g ai/ha
  Plant response rating: Buckwheat, Wild: 60
[5]; 62 g ai/ha
  Plant response rating: Buckwheat, Wild: 75
[5]; 125 g ai/ha
  Plant response rating: Buckwheat, Wild: 75
[6]; 31 g ai/ha
  Plant response rating: Field Poppy: 80
[6]; 16 g ai/ha
  Plant response rating: Field Poppy: 80
[6]; 62 g ai/ha
  Plant response rating: Field Poppy: 90
[6]; 125 g ai/ha
  Plant response rating: Field Poppy: 98
[7]; 31 g ai/ha
  Plant response rating: Canarygrass: 0
[7]; 16 g ai/ha
  Plant response rating: Canarygrass: 0
[7]; 62 g ai/ha
  Plant response rating: Canarygrass: 5
[7]; 125 g ai/ha
  Plant response rating: Canarygrass: 5
[8]; 31 g ai/ha
  Plant response rating: Oilseed Rape: 98
[8]; 16 g ai/ha
  Plant response rating: Oilseed Rape: 90
[8]; 62 g ai/ha
  Plant response rating: Oilseed Rape: 100
[8]; 125 g ai/ha
  Plant response rating: Oilseed Rape: 100
[9]; 31 g ai/ha
  Plant response rating: Wheat, Spring: 10
[9]; 16 g ai/ha
  Plant response rating: Wheat, Spring: 10
[9]; 62 g ai/ha
  Plant response rating: Wheat, Spring: 10
[9]; 125 g ai/ha
  Plant response rating: Wheat, Spring: 10
[10]; 31 g ai/ha
  Plant response rating: Chickweed: 90
[10]; 16 g ai/ha
  Plant response rating: Chickweed: 90
[10]; 62 g ai/ha
  Plant response rating: Chickweed: 98
[10]; 125 g ai/ha
  Plant response rating: Chickweed: 100
[11]; 31 g ai/ha
  Plant response rating: Bluegrass: 0
[11]; 16 g ai/ha
  Plant response rating: Bluegrass: 0
[11]; 62 g ai/ha
  Plant response rating: Bluegrass: 15
[11]; 125 g ai/ha
  Plant response rating: Bluegrass: 40
[12]; 31 g ai/ha
  Plant response rating: Pigweed: 95
[12]; 16 g ai/ha
  Plant response rating: Pigweed: 75
[12]; 62 g ai/ha
  Plant response rating: Pigweed: 95
[12]; 125 g ai/ha
  Plant response rating: Pigweed: 98
[13]; 31 g ai/ha
  Plant response rating: Ryegrass, Italian: 0
[13]; 16 g ai/ha
  Plant response rating: Ryegrass, Italian: 0
[13]; 62 g ai/ha
  Plant response rating: Ryegrass, Italian: 10
[13]; 125 g ai/ha
  Plant response rating: Ryegrass, Italian: 10
Kochia (Kochia scoparia); 31 g ai/ha
  Plant response rating: Kochia: 50
Kochia (Kochia scoparia); 16 g ai/ha
  Plant response rating: Kochia: 35
Kochia (Kochia scoparia); 62 g ai/ha
  Plant response rating: Kochia: 60
Kochia (Kochia scoparia); 125 g ai/ha
  Plant response rating: Kochia: 70
[14]; 31 g ai/ha
  Plant response rating: Blackgrass: 5
[14]; 16 g ai/ha
  Plant response rating: Blackgrass: 0
[14]; 62 g ai/ha
  Plant response rating: Blackgrass: 35
[14]; 125 g ai/ha
  Plant response rating: Blackgrass: 35
[15]; 31 g ai/ha
  Plant response rating: Mustard, Wild: 98
[15]; 16 g ai/ha
  Plant response rating: Mustard, Wild: 98
[15]; 62 g ai/ha
  Plant response rating: Mustard, Wild: 98
[15]; 125 g ai/ha
  Plant response rating: Mustard, Wild: 100
[16]; 31 g ai/ha
  Plant response rating: Barley, Winter: 0
[16]; 16 g ai/ha
  Plant response rating: Barley, Winter: 0
[16]; 62 g ai/ha
  Plant response rating: Barley, Winter: 0
[16]; 125 g ai/ha
  Plant response rating: Barley, Winter: 5
[17]; 31 g ai/ha
  Plant response rating: Russian Thistle: 80
[17]; 16 g ai/ha
  Plant response rating: Russian Thistle: 80
[17]; 62 g ai/ha
  Plant response rating: Russian Thistle: 90
[17]; 125 g ai/ha
  Plant response rating: Russian Thistle: 90
Wild oat (Avena fatua); 31 g ai/ha
  Plant response rating: Oat, Wild: 0
Wild oat (Avena fatua); 16 g ai/ha
  Plant response rating: Oat, Wild: 0
Wild oat (Avena fatua); 62 g ai/ha
  Plant response rating: Oat, Wild: 5
Wild oat (Avena fatua); 125 g ai/ha
  Plant response rating: Oat, Wild: 10
[18]; 31 g ai/ha
  Plant response rating: Galium: 40
[18]; 16 g ai/ha
  Plant response rating: Galium: 35
[18]; 62 g ai/ha
  Plant response rating: Galium: 50
[18]; 125 g ai/ha
  Plant response rating: Galium: 60
[19]; 31 g ai/ha
  Plant response rating: Lambsquarters: 98
[19]; 16 g ai/ha
  Plant response rating: Lambsquarters: 98
[19]; 62 g ai/ha
  Plant response rating: Lambsquarters: 100
[19]; 125 g ai/ha
  Plant response rating: Lambsquarters: 100
[20]; 31 g ai/ha
  Plant response rating: Radish, Wild: 95
[20]; 16 g ai/ha
  Plant response rating: Radish, Wild: 90
[20]; 62 g ai/ha
  Plant response rating: Radish, Wild: 95
[20]; 125 g ai/ha
  Plant response rating: Radish, Wild: 98
[21]; 31 g ai/ha
  Plant response rating: Bromegrass, Downy: 10
[21]; 16 g ai/ha
  Plant response rating: Bromegrass, Downy: 0
[21]; 62 g ai/ha
  Plant response rating: Bromegrass, Downy: 15
[21]; 125 g ai/ha
  Plant response rating: Bromegrass, Downy: 20
[22]; 31 g ai/ha
  Plant response rating: Foxtail, Green: 95
[22]; 16 g ai/ha
  Plant response rating: Foxtail, Green: 80
[22]; 62 g ai/ha
  Plant response rating: Foxtail, Green: 95
[22]; 125 g ai/ha
  Plant response rating: Foxtail, Green: 95
